In patent US11564913B2, “Compositions and methods for treating cancer” (Children's Hospital Medical Center, priority 2019, dated 2023):

Assays:
[1] = system: Rac1Δ/Δ+Rac2−/− murine leukemic cells expressing p190-BCR-ABL; test: Clonogenic ability of Rac-deficient leukemic cells; assay type: cell-based; settings: 1 μM
Method: FIG. 13: IODVA1 decreases Rac activation and signaling. (A) Ba/F3 cells expressing p190-BCR-ABL1 were treated with IODVA1 (3 μM) as indicated and levels of active Rac (Rac-GTP) were assessed by pull-down using GST-PAK-GBD, followed by immunoblotting (upper panel) and densitometric quantification (lower panel). (B) Flow-cytometry analysis of pJNK, pS6, p4EBP, pPAK1, and pAKT of Ba/F3 cells expressing Mieg3 empty vector (light and dark blue) or p190-BCR-ABL1 (light and dark salmon) and treated with vehicle control or IODVA1 (3 μM) for 30 min. (C) Representative histogram data of the cell cycle analysis of Ba/F3 cells expressing p190-BCR-ABL and treated with vehicle control or IODVA1 (1, 3, and 10 μM) for 20 h. (D) Quantification of the average number of colonies of bone marrow wild-type (black) and Rac1^Δ/Δ+Rac2^−/− (red) p190-BCR-ABL1 leukemic cells treated with vehicle control or IODVA1 (IO1, 1 μM). ns—not significant, * p<0.05, ** p<0.01, *** p<0.001. […] (G) Ba/F3 cells expressing p190-BCR-ABL1 were treated with IODVA1 (3 μM) and levels of active Cdc42 (Cdc42-GTP) and Rho (Rho-GTP) were assessed by pull-down at the indicated times using GST-PAK-GBD and GST-Rhotekin respectively, followed by immunoblotting (left panel) and densitometric quantification (right panel). […]
To confirm that IODVA1 targets Rac-dependent pathways, we assessed its effects in a Rac2-null background. […]

[2] = system: wild-type murine BM leukemic cells expressing p190-BCR-ABL; test: Colony formation assay (CFU-proB); assay type: cell-based
Method: FIG. 14: IODVA1 targets Vav3 in vitro and in vivo. (A) Ba/F3 cells expressing empty vector Mieg3 or p190-BCR-ABL1 were treated with vehicle control or IODVA1 (IO1, 3 μM) for 30 min and incubated with GST-Rac and glutathione beads. Beads were washed and the protein complexes were separated on SDS-PAGE and immunoblotted for pVav3. Input Vav3 was used as control. (B) Binding affinity (Kd) between IODVA1 and Vav3 (green), LARG (brown), and RacGDP (blue). […] Error bars=SD; N=3. (C) Quantification of the average number of colonies made by bone marrow wild-type (black) and Vav3^−/− (lilac) p190-BCR-ABL1 leukemic cells treated with vehicle control or IODVA1 (IO1, 1 and 3 μM) (* p≤0.05; ** p≤0.01; *** p≤0.001; ns, not significant). […] (E) Quantification by densitometry of the pVav3 band from FIG. 14A. […]
B-cell lineage colony-forming units (CFU-proB) were quantified post 9-day culture of leukemic BM cells or sorted for p190-BCR-ABL-expressing B-cell progenitors in M3134 methylcellulose (StemCell Technologies) supplemented with 30% FBS (for mouse B lymphoid colony forming cells; StemCell Technologies), […] L-glutamine (Invitrogen), 1% penicillin-streptomycin (Invitrogen), 100 μM β-mercaptoethanol (Fisher-Scientific), 1% BSA (Sigma-Aldrich), 20 ng/mL of recombinant mouse IL-7 (PeproTech), and 100 ng/mL of recombinant mouse SCF (PeproTech).

OC1(c2ccccn2)N=C(Nc2nc3ccccc3[nH]2)N=C1c1ccccn1 (stereo not drawn) [IODVA1, (Z)-2-((1H-benzo[d]imidazol-2-yl)imino)-4,5-di(pyridin-2-yl)-2,5-dihydro-1H-imidazol-5-ol]
number of colonies formed [1]: did not alter
decrease in number of colonies (average) ([2]; 1 μM): 3 folds
decrease in number of colonies (average) ([2]; 3 μM): 7 folds
